The test system of assay [1] is GC3/MTK-. The assay is described as follows: Inhibitory activity against GC3/M TK- human adreno carcinoma cell lines.
Assay [2] has as its system L1210. Kind of assay: Inhibitory activity against murine L1210 leukemic cell lines. The note with it: Mus musculus.
Assay [3] relates to CCRF-CEM. The assay is described as follows: Inhibitory activity against human CCRF-CEM leukemic cell lines.
The target of assay [4] is T1, Thymidylate synthase (Homo sapiens, UniProt P04818).
T1 sequence (P04818 whole entry): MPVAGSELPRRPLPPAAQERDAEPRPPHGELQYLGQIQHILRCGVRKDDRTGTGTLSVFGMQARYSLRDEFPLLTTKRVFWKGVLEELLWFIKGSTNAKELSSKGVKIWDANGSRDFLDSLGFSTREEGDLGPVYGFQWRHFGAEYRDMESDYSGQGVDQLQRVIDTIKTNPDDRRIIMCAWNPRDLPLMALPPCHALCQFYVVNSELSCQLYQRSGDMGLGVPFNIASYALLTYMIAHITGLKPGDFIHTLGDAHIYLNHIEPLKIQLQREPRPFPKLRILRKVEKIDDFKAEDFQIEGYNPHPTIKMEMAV
Description: Binding affinity against recombinant human thymidylate synthase
Assay [5] has as its target T1, Thymidylate synthase. The source holds these as a separate data set.
Description: Binding affinity against recombinant thymidylate synthase in Escherichia coli

Where “and” joins values, the source holds several entries; their conditions need not be identical. Identical values can stand only once.

Usually IC50 stands for the concentration needed to halve the response being measured. A high value points to weaker potency in that assay. Consider `C#CCN(Cc1ccc2nc(C)nc(O)c2c1)c1ccc(S(=O)(=O)c2ccccc2)cc1`, for which half-maximal inhibition in assay [1] (IC50) was put at 1030 nM.
In general, Ki refers to the equilibrium dissociation constant of an inhibitor or competing ligand from its target. Higher therefore signals a looser hold on the target. As to `C#CCN(Cc1ccc2nc(C)nc(O)c2c1)c1ccc(S(=O)(=O)c2ccccc2)c(F)c1`, the IC50 came to 2800 nM in assay [1], 1200 nM in assay [2] and 2000 nM in assay [3]. Further, the Ki in assay [4] is 20 nM and 46 nM; in assay [5], 43 nM and 74 nM.
With `C#CCN(Cc1ccc2nc(C)nc(O)c2c1)c1ccc([S+]([O-])c2ccccc2)c(Cl)c1` (stereo not drawn), the half-inhibitory concentration (IC50) amounted to 3800 nM in assay [1], 1000 nM in assay [2] and 2300 nM in assay [3]. For the same compound, the inhibitory constant (Ki) is 27 nM and 37 nM in assay [4]; 54 nM and 130 nM in assay [5].
Regarding `C#CCN(Cc1ccc2nc(C)[nH]c(=O)c2c1)c1ccc([S+]([O-])c2ccccc2)cc1` (stereo not drawn), the inhibitory constant (Ki) in assay [4] was 61 nM and 110 nM; in assay [5] it was 160 nM and 550 nM.
For the compound `C#CCN(Cc1ccc2nc(C)nc(O)c2c1)c1ccc([S+]([O-])c2ccccc2C)cc1` (stereo not drawn), the values for the IC50 in assay [1], in assay [2] and in assay [3] were 4000 nM, 1700 nM and 3500 nM, respectively. The Ki in assay [4] was 45 nM and 77 nM; in assay [5] it was 250 nM and 780 nM.
Regarding `C#CCN(Cc1ccc2nc(C)nc(O)c2c1)c1ccc([S+]([O-])c2ccccc2Cl)cc1` (stereo not drawn), the IC50 in assay [1] was 4300 nM; in assay [2] it was 2100 nM; in assay [3] it was 5800 nM. Moreover, the inhibition constant Ki in assay [4] was 46 nM and 73 nM; in assay [5], 190 nM and 760 nM.
`C#CCN(Cc1ccc2nc(C)nc(O)c2c1)c1ccc(S(=O)(=O)c2ccccc2C)cc1`: the figures for the IC50 in assay [1], in assay [2] and in assay [3] were 3400 nM, 600 nM and 2700 nM, respectively. Besides, the Ki in assay [4] was 26 nM and 58 nM; in assay [5], 56 nM and 160 nM.
For `C#CCN(Cc1ccc2nc(C)nc(O)c2c1)c1ccc(S(=O)(=O)c2ccccc2Cl)cc1`, the IC50 in assay [1] came out at 1200 nM; in assay [2] it was 300 nM; in assay [3], 600 nM. The inhibition constant (Ki) is 21 nM and 25 nM in assay [4]; 33 nM and 69 nM in assay [5].
`C#CCN(Cc1ccc2nc(C)nc(O)c2c1)c1ccc([S+]([O-])c2ccccc2C)c(C(F)(F)F)c1` (stereo not drawn): the IC50 was 9100 nM in assay [1], 1000 nM in assay [2] and 3000 nM in assay [3]. In addition, the inhibition constant Ki is 260 nM and 390 nM in assay [4]; 290 nM and 920 nM in assay [5].
On to `C#CCN(Cc1ccc2nc(C)nc(O)c2c1)c1ccc([S+]([O-])c2ccccc2)c(F)c1` (stereo not drawn), for which the IC50 in assay [1] was found to be 4200 nM; in assay [2], 2100 nM; in assay [3] it was 1400 nM. Moreover, the Ki was 50 nM and 120 nM in assay [4]; 88 nM and 290 nM in assay [5].
Turning to `C#CCN(Cc1ccc2nc(C)nc(O)c2c1)c1ccc(S(=O)(=O)c2ccccc2)c(Cl)c1`, the IC50 in assay [1] is 3000 nM; in assay [2] it was 1600 nM; in assay [3], 1500 nM. Also, the Ki in assay [4] is 24 nM and 55 nM; in assay [5], 33 nM and 43 nM.
In the case of `C#CCN(Cc1ccc2nc(C)nc(O)c2c1)c1ccc(S(=O)(=O)c2ccccc2C)c(C(F)(F)F)c1`, the IC50 in assay [1] is > 5000 nM; in assay [2], 1000 nM; in assay [3], 2000 nM. The Ki in assay [4] was 150 nM and 380 nM; in assay [5] it was 160 nM and 390 nM.
As to `C#CCN(Cc1ccc2nc(C)nc(O)c2c1)c1ccc([S+]([O-])c2ccccc2)c(C(F)(F)F)c1` (stereo not drawn), the figures for the IC50 in assay [1], in assay [2] and in assay [3] were 3300 nM, 1100 nM and 3000 nM, respectively. Besides, the Ki was 70 nM and 150 nM in assay [4]; 110 nM and 160 nM in assay [5].

These data come from ChEMBL document CHEMBL1129952, “Structure-based design of substituted diphenyl sulfones and sulfoxides as lipophilic inhibitors of thymidylate synthase” (J Med Chem, 1997).
